≈ marks a conversion by molar mass, not a printed value. Read-outs that look alike come from different tables or passages of the source.
Tests used:
HSV-2 (strain G) = experiment: Human ex vivo cervico-vaginal tissue, HSV-2 DNA release; assay type: cell-based; settings: 166 μg/ml
Procedure: For each experimental condition 16 tissue blocks were immersed in 500 μl of a HSV-2 (strain G) suspension for 2 hours at 37° C., washed three times with PBS and then placed on the gelfoam rafts. Tenofovir was added during the infection and replenished at each culture medium change. Herpes simplex viral replication was evaluated by the release of viral DNA into the culture medium as measured by quantitative real-time PCR (17). HIV-1 replication was evaluated by the release of p24 capsid antigen using a bead-based assay (18).

HSV-1 (Kos strain) = experiment: In vivo antiviral activity in HSV-1-infected NMRI athymic nude mice; settings: 1% topical, 5 days
Procedure: Adult NMRI athymic nude mice (weighing ˜20 g) were scarified on the lumbosacral area over a surface of about 1 cm^2. Mice were inoculated with 5×10^3 PFU of HSV-1 (Kos strain) or 5×10^2 of HSV-2 (G strain) in 50 μL per mouse. […] In each experiment, a group of animals treated with a placebo formulation that was the same as the test formulation without drug was included as a negative control. […] The day of virus inoculation was always considered as day 0. All animal procedures were approved by the K.U. Leuven Animal Care Committee. Development of lesions and mortality were recorded over a one month period. Animals were euthanized when more than 30% loss in body weight or development of paralysis occurred. Survival rates were estimated according to the Kaplan-Meir method and were compared using the log-rank test (Mantel-Cox) test (GraphPad Prism).

HSV-2 = experiment: Herpes virus infection of primary monocyte/macrophage (M/M) cell cultures; assay type: cell-based
Procedure: Human peripheral blood mononuclear cells (PBMCs) were obtained from the blood of healthy seronegative donors by Ficoll-Hypaque density gradient centrifugation. […] Monocyte/macrophage (M/M) cells were separated by adherence onto plastic. […] African green monkey fibroblastoid kidney (Vero) cells highly sensitive to the cytopathic effect of HSV-2 were grown in RPMI medium supplemented with 10% heat inactivated FCS and were used in infectious virus titration assays.
Macrophage cultures were then infected with HSV-2 (100 CCID50) in the presence of the test compounds. After 2 hrs virus adsorption, the cultures were extensively washed to remove any residual virus particles. Fresh culture medium and compounds, at the indicated concentrations, were then added to the cultures. […] Appropriate positive (infected but not treated M/M) and mock-infected negative (uninfected and untreated M/M) controls were run for each experiment as well. All assays were performed in triplicate. […] Therefore, the potential inhibitory effect of the compounds on the replication of HSV-2 was evaluated 6 days after infection. The amount of infectious virus in the supernatants was determined by a classical limited dilution assay on Vero cell cultures. The titers of produced virus were calculated according to the Reed and Muench method and expressed as 50% tissue culture infective dose per ml (TCID50/ml).
The inhibition capacity was expressed in % and calculated considering as value 100 being the virus production in virus-infected untreated cultures.

HIV-1 (NL4.3) = experiment: Co-infection of TZM-bl cells with HIV-1 and HSV-2: LTR-driven luciferase; assay type: cell-based; settings: presence or absence of an ongoing HSV-2 infection; data not shown
Procedure: The TZM-bl cell line is derived from HeLa cells and expresses high levels of CD4, CCR5 and CXCR4. In addition, this cell line is stably transduced with a LTR-driven firefly luciferase and E. coli-galactosidase gene (15). In a 96-well tray, 10,000 TZM-bl cells were seeded on day 1. […] Next, 100 μl of a virus suspension containing either HIV-1 (NL4.3), HSV-2 (G) or both viruses together was administered. Two to three days post infection, HIV-1 infection was monitored based on the determination of luciferase activity. For this means, 100 μl of culture supernatant was removed and 100 μl of Bright-Glo Luciferase Assay Substrate (Promega, Madison, USA) was added. The luminescence signal was measured using the Safire 2 microtiter plate reader (Tecan, Männedorf, Switzerland). A control condition containing only mock-infected cells was also included to measure the background luminescence levels. Three days post infection, HSV-2-induced cytopathicity was recorded microscopically based on giant cell formation.

[1] = tested on: thymidine kinase-deficient HSV-1 clinical isolates; experiment: microbe, parasite or virus in culture; assay type: cell-based; settings: Human alphaherpesvirus 1, Fibroblast
[2] = tested on: HSV-2 strain MS (HSV-2MS); experiment: Human ex vivo tonsillar tissue, HSV DNA release by real-time PCR; assay type: cell-based

## C[C@H](Cn1cnc2c(N)ncnc21)OCP(=O)(O)O [tenofovir, (R)-9-(2-phosphonylmethoxypropyl)adenine]
HSV-2 (strain G); 12 days of culture, IQR 4.8-5.7, untreated 6.6
  viral production (cumulative viral DNA release): 5.5 log10 copies/mL
HSV-2 (strain G); n=5
  reduction of viral replication (averaged over experiments): 78±9%
HSV-1 (Kos strain)
  morbidity and survival curves compared to the placebo-treated group: significantly delayed
HSV-2; 1 μg/ml or 0.2 μg/ml, day 6
  CPE: 70-80%
  virus titer in supernatants: 2.5×10^5 TCID50/ml
HSV-2; 5 μg/ml, day 6
  visible CPE: 30%
HSV-2; 20 μg/ml, day 6
  visible CPE: ~5%
HSV-2; 20 and 5 μg/ml, day 6
  virus titers in the culture supernatants versus untreated controls: more than one log lower
HSV-2; 500 and 100 μg/ml, day 6 post virus infection
  virus replication: completely suppressed virus replication
HIV-1 (NL4.3)
  suppression of HIV-1: equally suppressed
[1]; read-out: mean EC50
  EC50: ≥ 166 µg/mL
[1]; read-out: range of EC50
  EC50: ≥ 117 µg/mL
[2]; 66 μg/ml, HSV-2MS
  reduction of replication compared to infected donor matched-untreated tissue: 89±2%
[2]; 66 μg/ml, day 9 post infection, IQR 5.7-6.1, untreated 7.3
  release of viral DNA in culture medium: 5.8 log10 DNA copies/ml
[2]; Human alphaherpesvirus 2, read-out: EC50, suppression of replication
  EC50: 19 µg/mL (≈ 66.2 µM)

Source: patent US20130216590A1, “TOPICAL ANTIVIRAL FORMULATIONS FOR PREVENTION OF TRANSMISSION OF HSV-2” (priority 2010, published 2013)
